Laboratory results from PubChem BioAssay (NCI).
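48-hour exposure; five concentrations; linearly interpolated endpoints. The concentration for full growth arrest is given as TGI.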

Key:
Experiment in all cases: growth of human tumour cells (NCI), 48 h
BT-549 breast = system: BT-549 breast
HL-60(TB) leukemia = system: HL-60(TB) leukemia
MDA-N = system: MDA-N
MALME-3M melanoma = system: MALME-3M melanoma
SK-MEL-28 melanoma = system: SK-MEL-28 melanoma
A498 renal = system: A498 renal
TK-10 renal = system: TK-10 renal
COLO 205 colon = system: COLO 205 colon
HCT-116 colon = system: HCT-116 colon
UO-31 renal = system: UO-31 renal

Compound	TGI (BT-549 breast) [µM]	TGI (HL-60(TB) leukemia) [µM]	TGI (MDA-N) [µM]	TGI (MALME-3M melanoma) [µM]	TGI (SK-MEL-28 melanoma) [µM]	TGI (A498 renal) [µM]	TGI (TK-10 renal) [µM]	TGI (COLO 205 colon) [µM]	TGI (HCT-116 colon) [µM]	TGI (UO-31 renal) [µM]
O=[N+]([O-])c1ccc2c(c1)n1c(N3CCCC3)[n+]3ccccc3c1c1c3cccc[n+]3c(N3CCCC3)n21	> 100	94.1	> 100	> 100	> 100	> 100	> 100	> 100	> 100	–
CCOC(=O)CCC(NC(=O)OCc1ccccc1)C(=O)NC(CCC(=O)OCC)C(=O)NC(CCC(=O)OCC)C(=O)NNC(=O)OC(C)(C)C (configuration not stated)	> 100	> 100	> 100	> 100	> 100	> 100	> 100	> 100	> 100	> 100
CC(C#N)N(CCc1ccccc1)C(=O)c1ccccc1 (configuration not stated)	> 100	> 100	> 100	> 100	–	> 100	> 100	> 100	> 100	> 100
COC(=O)/C=C1\C(=O)C=C2[C@@H]3C[C@H]4C[C@H](CC[C@@]4(C)N21)C3(C)NC(C)=O (some centres not stated)	24.8	> 100	33.4	–	11.2	38.9	33.9	> 36.8	24	> 52.4
COc1ccc(C2SCC(=O)N2NC(=O)C(C)Oc2ccc(Cl)cc2Cl)cc1 (configuration not stated)	52.8	34.8	> 100	–	96.3	76.4	> 100	> 100	> 100	> 100
Clc1nc2c(C#Cc3ccccc3)ncnc2n1C1CCCCO1 (configuration not stated)	49.7	33.7	25.2	41.7	91.3	–	53	32.7	21.7	25.1
O=c1nc2ccc3sc4ccccc4c(=O)c3n2c(=O)[nH]1	–	> 100	> 100	> 100	> 100	> 100	> 100	> 100	> 100	> 100
NC(=S)NNC(=S)NC(=O)c1ccco1	–	> 10	> 10	> 10	> 10	–	–	–	> 10	> 10
COc1cc2oc(=O)cc(C)c2cc1OC	–	–	> 100	> 100	> 100	> 100	> 100	> 100	> 100	> 100
COC(=O)[C@@]1(C)CCC[C@]2(C(=O)O)C3Cc4occc4[C@H](C)[C@@H]3CCC21 (some centres not stated)	> 100	> 100	> 100	> 100	> 100	> 100	> 100	–	> 100	> 100
Cc1nc2cccc(F)c2c(=O)n1-c1nnc(C(F)(F)F)s1	–	> 10	> 10	–	> 10	–	> 10	> 10	> 10	> 10
N#C/C(=C1/c2cc([N+](=O)[O-])ccc2-c2c1cc([N+](=O)[O-])cc2[N+](=O)[O-])N1CCCCC1	> 100	–	> 100	> 100	> 100	> 100	> 100	> 100	> 100	> 100
COC(=O)c1cc(C)ccc1C1CN=NC12Cc1c(C)cc(C)cc1C2=O (configuration not stated)	69.3	29.3	42	60.6	> 100	–	82.5	31.4	28.6	> 100
O=P(O)(O)C=C=C1CCCCC1	–	> 100	> 100	> 100	> 100	> 100	> 100	> 100	> 100	–
N#Cc1c(N2CCN(c3ccc([N+](=O)[O-])cc3)CC2)[n+](=O)c2ccc(-c3ccc([N+](=O)[O-])cc3)cc2n1[O-]	> 100	–	> 100	> 100	> 100	> 100	> 100	> 100	> 100	> 100
NC1c2c(Cl)sc(Cl)c2C(=O)C1O (configuration not stated)	47.6	30.1	> 100	82.4	–	> 100	> 100	44.4	> 100	> 100
COc1cccc(NC(=O)CC(=O)N2N=C(C)C(N=Nc3ccc(C(=O)O)cc3)C2=O)c1 (configuration not stated)	> 100	> 100	> 100	> 100	> 100	–	> 100	> 100	> 100	> 100
